From PMC9505425, “Targeting of the Mitochondrial TET1 Protein by Pyrrolo[3,2-b]pyrrole Chelators” (International Journal of Molecular Sciences, 2022)
Values joined by “and” are separate entries in the source; they are usually repeats but may differ in a detail not shown here. Identical values can stand only once.

Experiments:
BT-20 cells = experiment: MTT cytotoxicity assay, BT-20; assay type: cell-based, human; settings: for Cell viability % / IC50: 48 h; for Cell viability % / viability at 0.1 µM / viability at 0.5 µM / viability at 0.75 µM / viability at 1 µM / viability at 2.5 µM / viability at 5 µM / viability at 7.5 µM / viability at 10 µM / viability at 15 µM / viability at 20 µM: repeats; for viability at 0.1 µM / viability at 0.5 µM / viability at 0.75 µM / viability at 1 µM / viability at 2.5 µM / viability at 5 µM / viability at 7.5 µM / viability at 10 µM / viability at 15 µM / viability at 20 µM / IC50: Homo sapiens; for viability at 0.1 µM / viability at 0.5 µM / viability at 0.75 µM / viability at 1 µM / viability at 2.5 µM / viability at 5 µM / viability at 7.5 µM / viability at 10 µM / viability at 15 µM / viability at 20 µM: BT-20, 48 h, read-out: Cell viability %; for IC50: BT-20, MTT
Method: (§1) The effects of the tested compounds 1–6 on HF-P4, U-118 MG, H1299, BT-20, and Caov-3 cell lines were evaluated by the MTT assay during 48 h treatment (Table 2 and Tables S2–S31). In all tested compounds, we recognized a difference in cytotoxicity between healthy cells (HF-P4) and cancer cell lines (BT-20, Caov-3, and H-1299). […] In the case of ovarian cancer, the authors discovered oncogenic and poor prognosis roles of TET1 in epithelial ovarian carcinoma (EOC). TET1 is believed to demethylate the epigenome and activate numerous oncogenic pathways in EOC. The aforementioned study presents a new mechanism where TET1 contributes to tumor development through collaboration with CK2α [21]. The overexpression of the TET1 protein was also found in triple negative breast cancer and was associated with an activation of PI3K/mTOR pathway and decreased overall survival.
The human mammary gland/breast cell line (BT-20), purchased from ATCC (BT-20 (ATCC® HTB-19™), Manassas, VA, USA), was used for the cytotoxicity assay (MTT), and BT-20 cells were cultivated under standard conditions in Eagle’s minimum essential medium (ATCC, Manassas, VA, USA) supplemented with 10% FBS and streptomycin (100 μg/mL) at 37 °C at a 5% CO2 atmosphere.
(§2) For the cytotoxicity assay, we used the following cell lines: human glioblastoma cell line U118-MG, human mammary gland/breast cell line BT-20, human ovary adenocarcinoma cell line Caov-3, and non-small-cell lung carcinoma H-1299. As previously mentioned, these cell lines contain a high level of the TET1 protein, which corresponds to a lower overall survival. In addition to these cell cultures, we used the human dermal fibroblast cell line HF-P4 as a healthy control. Determination of cytotoxicity was performed using the MTT [3-(4,5-dimethylthiazol-2-yl)-2,5-diphenyltetrazolium bromide] colorimetric assay. Viable cells from each cell line were cultured in 96-well plates (VWR, Stříbrná Skalice, Czech Republic) at a density of 1.0 × 10^5 cells per well and allowed to grow for 24 h in 200 μL of recommended medium. After a 1-day incubation, the medium was replaced with solutions of compounds 1–6 at concentration ranges of 0.1–20 μM. Each concentration was measured four times within one test, and the entire test was repeated three times. Tested compounds 1–6 were dissolved in DMSO and then diluted with corresponding medium to a final volume of 200 μL (maximum 1% DMSO). After 48 h exposure, cells were treated with 175 μL of MTT solution (P-LAB, Prague, Czech Republic) for 2 h. In the next step, MTT solution was removed, and 125 μL of DMSO (Penta, Prague, Czech Republic) was added to solubilize dark crystals of formazan formed in intact cells, and absorbance was measured at 570 nm by the enzyme-linked immunoabsorbent assay reader Infinite® 200 PRO (Tecan, Männedorf, Switzerland). The final DMSO concentration was smaller than 1% (v/v). The absorbance of untreated cells was considered 100%, and IC50 values were calculated by the GraphPad Prism 8 software. As a parameter for cytotoxicity, we used a concentration that inhibits 50% of cell growth (IC50).

U-118 MG cells = experiment: MTT cytotoxicity assay, U-118 MG; assay type: cell-based, human; settings: 48 h; for viability at 0.1 µM / viability at 0.5 µM / viability at 0.75 µM / viability at 1 µM / viability at 2.5 µM / viability at 5 µM / viability at 7.5 µM / viability at 10 µM / viability at 15 µM / viability at 20 µM / IC50: Homo sapiens, U-118-MG; for viability at 0.1 µM / viability at 0.5 µM / viability at 0.75 µM / viability at 1 µM / viability at 2.5 µM / viability at 5 µM / viability at 7.5 µM / viability at 10 µM / viability at 15 µM / viability at 20 µM / Cell viability %: U-118 MG, repeats; for viability at 0.1 µM / viability at 0.5 µM / viability at 0.75 µM / viability at 1 µM / viability at 2.5 µM / viability at 5 µM / viability at 7.5 µM / viability at 10 µM / viability at 15 µM / viability at 20 µM: read-out: Cell viability %; for IC50: MTT
Method: as §1
A human glioblastoma cell line (U118-MG) and a human non-small-cell lung carcinoma cell line (H1299) were used for the cytotoxicity assay (MTT). Both cell lines were generously supplied by Dr. M. Masařik, PhD, Department of Pathological physiology, Masaryk University, Czech Republic. U118-MG cells were cultivated under standard conditions in Dulbecco’s modified Eagle’s medium (ATCC, Manassas, VA, USA) supplemented with 10% FBS and streptomycin (100 μg/mL) at 37 °C at a 5% CO2 atmosphere. H1299 cells were cultivated under standard conditions in RPMI 1640 (BioTech, Prague, Czech Republic) medium supplemented with 10% FBS and streptomycin (100 μg/mL) at 37 °C at a 5% CO2 atmosphere.
as §2

Cc1ccc(-n2c(-c3ccc(C(=O)NN)cc3)cc3c2cc(-c2ccc(C(=O)NN)cc2)n3-c2ccc(C)cc2)cc1 [Compound 1]
Cell viability % (BT-20 cells; BT-20, 100 nM, 0.1 µM): 100.0252% and 99.53% | Cell viability % (BT-20 cells; BT-20, 500 nM, 0.5 µM): 106.1555% and 91.85% | Cell viability % (BT-20 cells; BT-20, 750 nM, 0.75 µM): 98.6% and 95.52% | Cell viability % (BT-20 cells; BT-20, 1 uM, 1 µM): 98.92% and 100.049% | Cell viability % (BT-20 cells; BT-20, 2.5 uM, 2.5 µM): 55.65% and 54.6523% | Cell viability % (BT-20 cells; BT-20, 5 uM, 5 µM): 56.31% and 56.39% | Cell viability % (BT-20 cells; BT-20, 7.5 uM, 7.5 µM): 50.1262% and 42.238% | Cell viability % (BT-20 cells; BT-20, 10 uM, 10 µM): 44.0939% and 37.78% | Cell viability % (BT-20 cells; BT-20, 15 uM, 15 µM): 32.99% and 30.02% | Cell viability % (BT-20 cells; BT-20, 20 uM, 20 µM): 18.85% and 15.23% | viability at 0.1 µM (BT-20 cells; BT-20, 100 nM): 102% | viability at 0.5 µM (BT-20 cells; BT-20, 500 nM): 87.8% | viability at 0.75 µM (BT-20 cells; BT-20, 750 nM): 91.2% | viability at 1 µM (BT-20 cells; BT-20, 1 uM): 103% | viability at 2.5 µM (BT-20 cells; BT-20, 2.5 uM): 69.2% | viability at 5 µM (BT-20 cells; BT-20, 5 uM): 56.8% | viability at 7.5 µM (BT-20 cells; BT-20, 7.5 uM): 41.2% | viability at 10 µM (BT-20 cells; BT-20, 10 uM): 41.5% | viability at 15 µM (BT-20 cells; BT-20, 15 uM): 33.5% | viability at 20 µM (BT-20 cells; BT-20, 20 uM): 19.8% | IC50 (BT-20 cells): 5.94 µM | viability at 0.1 µM (U-118 MG cells; 100 nM): 74.9% | viability at 0.5 µM (U-118 MG cells; 500 nM): 81.2% | viability at 0.75 µM (U-118 MG cells; 750 nM): 75.3% | viability at 1 µM (U-118 MG cells; 1 uM): 61.6% | viability at 2.5 µM (U-118 MG cells; 2.5 uM): 59.8% | viability at 5 µM (U-118 MG cells; 5 uM): 64.5% | viability at 7.5 µM (U-118 MG cells; 7.5 uM): 65.9% | viability at 10 µM (U-118 MG cells; 10 uM): 49.8% | viability at 15 µM (U-118 MG cells; 15 uM): 52.9% | viability at 20 µM (U-118 MG cells; 20 uM): 32.4% | IC50 (U-118 MG cells): > 20 µM | Cell viability % (U-118 MG cells; 100 nM, 0.1 µM): 89.42% and 92.96% | Cell viability % (U-118 MG cells; 500 nM, 0.5 µM): 77.57% and 78.28% | Cell viability % (U-118 MG cells; 750 nM, 0.75 µM): 75.76% and 76.03% | Cell viability % (U-118 MG cells; 1 uM): 65.25% and 66.5% | Cell viability % (U-118 MG cells; 2.5 uM): 71.64% and 61.0448% | Cell viability % (U-118 MG cells; 5 uM): 72.2848% and 61.2% | Cell viability % (U-118 MG cells; 7.5 uM): 73.35% and 73.21% | Cell viability % (U-118 MG cells; 10 uM): 65.4465% and 62.16% | Cell viability % (U-118 MG cells; 15 uM): 49.75% and 52.18% | Cell viability % (U-118 MG cells; 20 uM): 38.37% and 42.77% | melting point: 312 to 313 °C

Cc1ccc(-n2c(-c3ccc(C(=O)N/N=C/c4ccccc4O)cc3)cc3c2cc(-c2ccc(C(=O)N/N=C/c4ccccc4O)cc2)n3-c2ccc(C)cc2)cc1 [Compound 6]
Cell viability % (BT-20 cells; BT-20, 100 nM, 0.1 µM): 95.0647% and 99.24% | Cell viability % (BT-20 cells; BT-20, 500 nM, 0.5 µM): 79.35% and 86.49% | Cell viability % (BT-20 cells; BT-20, 750 nM, 0.75 µM): 84.44% and 98.05% | Cell viability % (BT-20 cells; BT-20, 1 uM, 1 µM): 79.3% and 90.76% | Cell viability % (BT-20 cells; BT-20, 2.5 uM, 2.5 µM): 84.17% and 92.79% | Cell viability % (BT-20 cells; BT-20, 5 uM, 5 µM): 70.3% and 79.42% | Cell viability % (BT-20 cells; BT-20, 7.5 uM, 7.5 µM): 49.86% and 58.52% | Cell viability % (BT-20 cells; BT-20, 10 uM, 10 µM): 29.6118% and 40.92% | Cell viability % (BT-20 cells; BT-20, 15 uM, 15 µM): 26.72% and 42.11% | Cell viability % (BT-20 cells; BT-20, 20 uM, 20 µM): 24.04% and 23.03% | viability at 0.1 µM (BT-20 cells; BT-20, 100 nM): 104% | viability at 0.5 µM (BT-20 cells; BT-20, 500 nM): 79.9% | viability at 0.75 µM (BT-20 cells; BT-20, 750 nM): 85.1% | viability at 1 µM (BT-20 cells; BT-20, 1 uM): 91.2% | viability at 2.5 µM (BT-20 cells; BT-20, 2.5 uM): 89.2% | viability at 5 µM (BT-20 cells; BT-20, 5 uM): 85.8% | viability at 7.5 µM (BT-20 cells; BT-20, 7.5 uM): 50.5% | viability at 10 µM (BT-20 cells; BT-20, 10 uM): 36.2% | viability at 15 µM (BT-20 cells; BT-20, 15 uM): 37.8% | viability at 20 µM (BT-20 cells; BT-20, 20 uM): 18.8% | IC50 (BT-20 cells): 9.84 µM | viability at 0.1 µM (U-118 MG cells; 100 nM): 98.1% | viability at 0.5 µM (U-118 MG cells; 500 nM): 73.5% | viability at 0.75 µM (U-118 MG cells; 750 nM): 67.2% | viability at 1 µM (U-118 MG cells; 1 uM): 68.4% | viability at 2.5 µM (U-118 MG cells; 2.5 uM): 63% | viability at 5 µM (U-118 MG cells; 5 uM): 59% | viability at 7.5 µM (U-118 MG cells; 7.5 uM): 45.9% | viability at 10 µM (U-118 MG cells; 10 uM): 49.6% | viability at 15 µM (U-118 MG cells; 15 uM): 28% | viability at 20 µM (U-118 MG cells; 20 uM): 22.5% | IC50 (U-118 MG cells): 8.12 µM | Cell viability % (U-118 MG cells; 100 nM, 0.1 µM): 91.37% and 92.92% | Cell viability % (U-118 MG cells; 500 nM, 0.5 µM): 83.7778% and 86.55% | Cell viability % (U-118 MG cells; 750 nM, 0.75 µM): 73.07% and 81.93% | Cell viability % (U-118 MG cells; 1 uM): 80.41% and 81.53% | Cell viability % (U-118 MG cells; 2.5 uM): 69.75% and 76.68% | Cell viability % (U-118 MG cells; 5 uM): 63.22% and 58.23% | Cell viability % (U-118 MG cells; 7.5 uM): 45.4% and 56.877% | Cell viability % (U-118 MG cells; 10 uM): 51.17% and 52.19% | Cell viability % (U-118 MG cells; 15 uM): 29.06% and 32.78% | Cell viability % (U-118 MG cells; 20 uM): 18.64% and 22.51% | melting point: 332 to 333 °C
